The nature of series [1]: in vitro. To be noted: human, liver microsomes. For orientation: Liver microsomes are vesicles of endoplasmic reticulum, rich in cytochrome P450 enzymes.
The nature of series [2]: in vitro. To be noted: human, hepatocytes.

Structures are written as SMILES. Bounds are passed on as bounds.

Regarding `Cc1cccc(CN(Cc2ccccn2)[C@H]2CCNC2)c1C`, the half-life in series [1] was determined as 0.233 h.
Same read-out and setting: the result for `Fc1cccc(CN(C2CCOCC2)[C@H]2CCNC2)c1C(F)(F)F` reads more than 2 h.
Turning to `c1ccc(-c2ccccc2CN(C2CCOCC2)[C@H]2CCNC2)cc1`, the half-life in series [1] is more than 2 h; in series [2] it was 1.38 h.
In series [1], `Clc1cccc(CN(CC2CC2)[C@H]2CCNC2)c1Cl` had a half-life of more than 2 h.
As for `Cc1cccc(CN(C2CCOCC2)[C@H]2CCNC2)c1Cl`, the half-life is more than 2 h in series [1] and 1.18 h in series [2].
For `Cc1c(Cl)cccc1CN(C1CCOCC1)[C@H]1CCNC1`, in that order: more than 2 h and 1.73 h.
Turning to `COc1cccc(CN(C2CCOCC2)[C@H]2CCNC2)c1C`, the half-life in series [1] was 1.57 h.
Consider `Cc1cccc(CN(C2CCOCC2)[C@H]2CCNC2)c1C`, for which, in series [1], the half-life was more than 2 h.
Regarding `Cc1c(CN(C2CCOCC2)[C@H]2CCNC2)cccc1C(F)(F)F`, the results for the half-life in series [1] and in series [2] were more than 2 h and more than 4 h, respectively.
`Clc1cccc(CN(Cc2ccccn2)[C@H]2CCNC2)c1Cl`: the half-life in series [1] was found to be 1.02 h.
Consider `Cc1cccc(CN(Cc2ccccn2)[C@@H]2CCNC2)c1C`, for which the half-life in series [1] worked out at 0.4 h. This half-life is about 2.5-fold lower than that of the compound before.
Same read-out and setting: the result for `Cc1cccc(CN(C2CCOCC2)[C@@H]2CCNC2)c1C` reads more than 2 h.
The same measure, in the same setting: the result for `Clc1cccc(CN(CC2CC2)[C@@H]2CCNC2)c1Cl` reads more than 2 h.
The same measure, in the same setting: the result for `Cc1ccccc1CN(C1CCOCC1)[C@H]1CCNC1` reads more than 2 h; that for `FC(F)(F)c1ccccc1CN(C1CCOCC1)[C@H]1CCNC1`, more than 2 h.

What is called half-life is how long it takes for the measured level to halve. Read a high half-life as slow decline.

The values are drawn from ChEMBL document CHEMBL1139125, “N-Benzyl-N-(tetrahydro-2H-pyran-4-yl)pyrrolidin-3-amines as selective dual serotonin/noradrenaline reuptake inhibitors” (Bioorg Med Chem Lett, 2007).
